Measurements: PubChem BioAssay AID2060499 (Molecular Pharmacology Branch, DTP, NCI, 2025)
pIC50: −log10 of the molar value. Values joined by “and” are separate entries in the source; they are usually repeats but may differ in a detail not shown here. Equal entries are not always repeated.

Tested on: 777334-354-R2-J4-PDC tumor spheroids with HUVEC/MSC, viability
Test: Anticancer human tumor 777334-354-R2-J4-PDC patient-derived pancreatic adenocarcinoma cell line growth inhibition [GQUAD]
Details: for viability, T/C: stronger effect = lower value; for pIC50: curve of compound
Excerpt: DNA G-quadruplex Stabilizer Agents in Combinations in Complex Spheroids
A high-throughput screen of multi-cell type tumor spheroids was designed to identify active combinations of DNA G-quadruplex stabilizer agents and targeted small molecules. Complex spheroids include a stromal component modeled by human endothelial cells (HUVEC) and fibroblasts modeled by human mesenchymal stem cells (MSCs). The concentration ranges selected for each drug and investigational agent were based upon clinically achievable concentrations if the clinical Cmax of the agent was known.
Compounds. The drugs and investigational agents: pidnarulex (CX-5461; NSC782164), APTO-253 (NSC789042), BRACO-19 (NSC847499), peposertib (NSC802822), ceralasertib (NSC780249), elimusertib (NSC800525), camonsertib (NSC841442), AZD-1390 (NSC803789), olaparib (NSC753686), talazoparib (NSC767125), ART-558 (NSC835418), sotorasib (NSC818433), MRTX-1133 (NSC836407), SN-38 (NSC673596), topotecan (NSC609699), etoposide (NSC141540), doxorubicin (NSC123127), gemcitabine (NSC613327), 5-fluorouracil (NSC19893), paclitaxel (NSC125973), vemurafenib (NSC761431), panobinostat (NSC761190), R-306465 (JNJ-16241199; NSC773264), adavosertib (NSC754352), TP-3654 (NSC805149), carboplatin (NSC241240), KSQ-4279 (NSC840948), and staurosporine (NSC755774) were obtained from the National Cancer Institute (NCI) Developmental Therapeutics Program Chemical Repository (34). The FDA-approved anticancer drug set is available from the NCI Developmental Therapeutics Program. […] The stock solutions were prepared in dimethyl sulfoxide (DMSO, Sigma-Aldrich, St. Louis, MO, cat. D2650) at 800-fold the tested concentration and stored at -70 degrees C prior to their use. All drugs and investigational agents were tested over a range starting from a high concentration at or near the clinical Cmax and decreasing in half-log increments. If the clinical Cmax for an agent had not been determined, the highest concentration tested was 10 microM.
2.3 Cell Culture. All cells were maintained in an incubator at 37 degrees C and 5% CO2 with 95% humidity. The PDC lines were cultured according to standard operating procedures established by the NCI PDMR. All PDCs were thawed and cultured in Matrigel-coated flasks prepared with a working solution of 1X Ham's F-12 nutrient mix, without supplementation (Invitrogen, cat. 11765054), 100 U/mL penicillin-streptomycin (Invitrogen, cat. 15140122), and 2.5% Matrigel (Corning Inc., cat. 354248) for the first three passages. The 857933-349-R-J2-PDC line was cultured in 6C/Colon 1B media, which includes advanced DMEM/F-12 (Thermo Fisher Scientific, cat. 12634028), 10 mM HEPES (Thermo Fisher Scientific, cat. 15630080), 1X GlutaMAX supplement (Thermo Fisher Scientific, cat. 35050061), 0.1 mg/mL primocin (InvivoGen, cat. ant-pm-2), 10% defined fetal bovine serum, heat inactivated (HyClone Laboratories Inc., cat. SH30070.03HI), 50% L-WRN conditioned media (ATCC, cat. CRL-3276), 1.25 mM N-Acetyl-L-cysteine (Sigma-Aldrich, cat. A9165), 10 mM nicotinamide (Sigma-Aldrich, cat. N0636), 1X B-27 supplement (Thermo Fisher Scientific, cat. 17504044), 1X N-2 supplement (Thermo Fisher Scientific, cat. 17502048), 10 microM Y-27632 dihydrochloride (Tocris Bioscience, cat. 1254), and 50 ng/mL human EGF recombinant protein (Thermo Fisher Scientific, cat. PHG0311). The 485176-168-R4-J1-PDC line was cultured in Panc media, which includes all 6C/Colon 1B media components plus 100 ng/mL human FGF-10 (Thermo Fisher Scientific, cat. 100-26), 500 nM SB-431542 (Selleckchem, cat. S1067), and gastrin (Tocris, cat. 3006).
[…]
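Note: spheroids exposed to compounds for 7 days before readout.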

Row | Compound | viability, T/C (compound 0.0316 µM) | viability, T/C (compound 0.1 µM) | viability, T/C (compound 0.316 µM) | viability, T/C (compound 1 µM) | viability, T/C (compound 3.16 µM) | viability, T/C (compound 10 µM) | pIC50 | viability, T/C (compound 0.000999 µM) | viability, T/C (compound 0.00316 µM) | viability, T/C (compound 0.00999 µM) | viability, T/C (compound 0.0999 µM)
1 | CCCS(=O)(=O)Nc1ccc(F)c(C(=O)c2c[nH]c3ncc(-c4ccc(Cl)cc4)cc23)c1F | 107% and 111% and 99.5% | 109% and 105% and 92.8% | 114% and 127% and 108% | 110% and 120% and 102% | 98.7% and 115% and 111% | 37.2% and 34.2% and 33.4% | 5.10 and 5.12 | – | – | – | –
2 | COc1ccc([C@@H](O)c2cc(-c3ncnc4cc(N5CCOCC5)ccc34)c(F)cc2Cl)nn1 | 88.9% and 85.9% and 100% | 90.6% and 89.8% and 104% | 94.2% and 88.9% and 91.9% | 76.1% and 72.6% and 86.3% | 55.1% and 55.7% and 51.5% | 30.2% and 26.8% and 30.7% | 5.41 and 5.42 and 5.44 | – | – | – | –
3 | COc1cccc2c1C(=O)c1c(O)c3c(c(O)c1C2=O)CC(O)(C(=O)CO)CC3OC1CC(N)C(O)C(C)O1 (stereo not given) | 95.8% and 98.8% and 102% | 86.7% and 89.4% and 89.9% | 69% and 68.8% and 73.9% | 42% and 47.4% and 37.8% | 22.2% and 23.6% and 27.6% | 12.6% and 13% and 11.9% | 6.15 and 6.09 and 6.13 | – | – | – | –
4 | Cc1[nH]c2ccccc2c1CCNCc1ccc(/C=C/C(=O)NO)cc1 | 93.5% and 98.6% and 91.6% | – | 32.1% and 29.1% and 35.9% | – | – | – | 6.72 and 6.74 and 6.68 | 99% and 100% (2×) | 91.5% and 99.1% and 97.5% | 106% and 114% and 102% | 72.8% and 72.4% and 75%
5 | Nc1ccn(C2OC(CO)C(O)C2(F)F)c(=O)n1 (stereo not given) | 91.5% and 76.4% and 76.8% | 73% and 69.4% and 80% | 64.9% and 57.5% and 76.6% | 51.7% and 46.7% and 49.9% | 41.5% and 36.5% and 39.1% | 32.9% and 28.9% and 31.4% | 5.92 and 6.15 and 5.98 | – | – | – | –
